Assay results from PMC11859928, “Design, Synthesis, and Antiproliferative Activity of Novel Indole/1,2,4-Triazole Hybrids as Tubulin Polymerization Inhibitors” (Pharmaceuticals, 2025).

Columns and labels:
Assay in all cases: NCI one-dose assay
Type in all cases: cell-based
RPMI-8226 = details: Homo sapiens, RPMI-8226, Leukemia, read-out: Cell growth inhibition %
NCI-H322M = details: Homo sapiens, Non-small cell lung cancer, read-out: Cell growth inhibition %
SK-MEL-5 = details: Homo sapiens, SK-MEL-5, Melanoma, read-out: Cell growth inhibition %
NCI-H460 = details: Homo sapiens, NCI-H460, Non-small cell lung cancer, read-out: Cell growth inhibition %
TK-10 = details: Homo sapiens, TK-10, Renal cancer, read-out: Cell growth inhibition %
MDA-MB-231/ATCC = details: Homo sapiens, Breast cancer, read-out: Cell growth inhibition %
MDA-MB-468 = details: Homo sapiens, MDA-MB-468, Breast cancer, read-out: Cell growth inhibition %
SF-295 = details: Homo sapiens, SF-295, CNS cancer, read-out: Cell growth inhibition %
SR = details: Homo sapiens, Leukemia, read-out: Cell growth inhibition %
HS 578 T = details: Homo sapiens, Breast cancer, read-out: Cell growth inhibition %
SF-539 = details: Homo sapiens, SF-539, CNS cancer, read-out: Cell growth inhibition %
SNB-75 = details: Homo sapiens, SNB-75, CNS cancer, read-out: Cell growth inhibition %
T-47D = details: Homo sapiens, T47D, Breast cancer, read-out: Cell growth inhibition %
UACC-62 = details: Homo sapiens, UACC-62, Melanoma, read-out: Cell growth inhibition %
K-562 = details: Homo sapiens, K562, K-562, Leukemia, read-out: Cell growth inhibition %
A549/ATCC = details: Homo sapiens, Non-small cell lung cancer, read-out: Cell growth inhibition %
IGROV1 = details: Homo sapiens, IGROV-1, IGROV1, Ovarian cancer, read-out: Cell growth inhibition %
ACHN = details: Homo sapiens, Renal cancer, read-out: Cell growth inhibition %
HCC-2998 = details: Homo sapiens, HCC-2998, Colon cancer, read-out: Cell growth inhibition %
UACC-257 = details: Homo sapiens, UACC-257, Melanoma, read-out: Cell growth inhibition %
SK-OV-3 = details: Homo sapiens, SK-OV-3, Ovarian cancer, read-out: Cell growth inhibition %
MCF7 = details: Homo sapiens, MCF7, Breast cancer, read-out: Cell growth inhibition %
HL-60(TB) = details: Homo sapiens, Leukemia, read-out: Cell growth inhibition %
KM12 = details: Homo sapiens, KM12, Colon cancer, read-out: Cell growth inhibition %
OVCAR-8 = details: Homo sapiens, OVCAR-8, Ovarian cancer, read-out: Cell growth inhibition %
M14 = details: Homo sapiens, M14, Melanoma, read-out: Cell growth inhibition %
U251 = details: Homo sapiens, U-251, U251, CNS cancer, read-out: Cell growth inhibition %
MDA-MB-435 = details: Homo sapiens, MDA-MB-435, Melanoma, read-out: Cell growth inhibition %
CAKI-1 = details: Homo sapiens, CAKI-1, Renal cancer, read-out: Cell growth inhibition %
OVCAR-4 = details: Homo sapiens, OVCAR-4, Ovarian cancer, read-out: Cell growth inhibition %
NCI-H226 = details: Homo sapiens, NCI-H226, Non-small cell lung cancer, read-out: Cell growth inhibition %
HT29 = details: Homo sapiens, HT-29, HT29, Colon cancer, read-out: Cell growth inhibition %
BT-549 = details: Homo sapiens, BT-549, Breast cancer, read-out: Cell growth inhibition %
NCI-H522 = details: Homo sapiens, NCI-H522, Non-small cell lung cancer, read-out: Cell growth inhibition %
MALME-3M = details: Homo sapiens, Melanoma, read-out: Cell growth inhibition %
SK-MEL-28 = details: Homo sapiens, SK-MEL-28, Melanoma, read-out: Cell growth inhibition %

| SMILES | inhibition at 10 µM (RPMI-8226) | inhibition at 10 µM (NCI-H322M) | inhibition at 10 µM (SK-MEL-5) | inhibition at 10 µM (NCI-H460) | inhibition at 10 µM (TK-10) | inhibition at 10 µM (MDA-MB-231/ATCC) | inhibition at 10 µM (MDA-MB-468) | inhibition at 10 µM (SF-295) | inhibition at 10 µM (SR) | inhibition at 10 µM (HS 578 T) | inhibition at 10 µM (SF-539) | inhibition at 10 µM (SNB-75) | inhibition at 10 µM (T-47D) | inhibition at 10 µM (UACC-62) | inhibition at 10 µM (K-562) | inhibition at 10 µM (A549/ATCC) | inhibition at 10 µM (IGROV1) | inhibition at 10 µM (ACHN) | inhibition at 10 µM (HCC-2998) | inhibition at 10 µM (UACC-257) | other results |
| --- | --- | --- | --- | --- | --- | --- | --- | --- | --- | --- | --- | --- | --- | --- | --- | --- | --- | --- | --- | --- | --- |
| C=CCn1c(SCC(=NO)c2ccc(OC)cc2)nnc1-c1c[nH]c2ccccc12 [Compound 7b, 2-((4-allyl-5-(1H-indol-3-yl)-4H-1,2,4-triazol-3-yl)thio)-1-(4-methoxyphenyl) Ethanone Oxime] | 14.9% | -1.52% | 10.5% | 5.34% | -27.2% | 13.5% | 16.3% | 16.6% | 3.76% | 2.61% | 4.37% | -12.9% | 26.4% | 20.9% | 13.6% | -9.29% | 17.6% | 7.56% | -8.35% | -11.5% | inhibition at 10 µM (SK-OV-3): 1.86%; inhibition at 10 µM (MCF7): 11.3%; inhibition at 10 µM (HL-60(TB)): 16.1%; inhibition at 10 µM (KM12): -5.28%; inhibition at 10 µM (OVCAR-8): 7.1%; inhibition at 10 µM (M14): 2.83%; inhibition at 10 µM (U251): -5.26%; inhibition at 10 µM (MDA-MB-435): -10.6%; inhibition at 10 µM (CAKI-1): 1.5%; inhibition at 10 µM (OVCAR-4): -1.81%; inhibition at 10 µM (NCI-H226): 14.9%; inhibition at 10 µM (HT29): -5.85%; inhibition at 10 µM (BT-549): -3.8%; inhibition at 10 µM (NCI-H522): 8.33%; inhibition at 10 µM (MALME-3M): 3.2%; inhibition at 10 µM (SK-MEL-28): -3.89% |
| O/N=C(\CSc1nnc(-c2c[nH]c3ccccc23)n1-c1ccccc1)c1ccc(Br)cc1 [Compound 7i, (Z)-2-((5-(1H-Indol-3-yl)-4-phenyl-4H-1,2,4-triazol-3-yl)thio)-1-(4-bromophenyl) Ethanone Oxime] | 113% | 173% | 124% | 122% | 183% | 184% | 195% | 115% | 98.7% | 139% | 165% | 120% | 94% | 190% | 111% | 118% | 165% | 184% | 166% | 109% | inhibition at 10 µM (SK-OV-3): 150%; inhibition at 10 µM (MCF7): 143%; inhibition at 10 µM (HL-60(TB)): 136%; inhibition at 10 µM (KM12): 97.9%; inhibition at 10 µM (OVCAR-8): 142%; inhibition at 10 µM (M14): 168%; inhibition at 10 µM (U251): 90.3%; inhibition at 10 µM (MDA-MB-435): 200%; inhibition at 10 µM (CAKI-1): 194%; inhibition at 10 µM (OVCAR-4): 183%; inhibition at 10 µM (NCI-H226): 93.7%; inhibition at 10 µM (HT29): 177%; inhibition at 10 µM (BT-549): 173%; inhibition at 10 µM (NCI-H522): 130%; inhibition at 10 µM (MALME-3M): 110%; inhibition at 10 µM (SK-MEL-28): 126% |
| C=CCn1c(SC/C(=N\O)c2ccc(Br)cc2)nnc1-c1c[nH]c2ccccc12 [Compound 7d, (Z)-2-((4-allyl-5-(1H-indol-3-yl)-4H-1,2,4-triazol-3-yl)thio)-1-(4-bromophenyl) Ethanone Oxime] | 37.9% | 16.3% | 40.9% | 19.7% | 12.9% | 23.6% | 42.2% | 32.5% | 28.5% | 22.1% | 14% | 6.02% | 39.8% | 36.3% | 40.8% | 9.17% | 30.8% | 17.9% | -3.65% | -1.32% | inhibition at 10 µM (SK-OV-3): 3.28%; inhibition at 10 µM (MCF7): 17.9%; inhibition at 10 µM (HL-60(TB)): 35.7%; inhibition at 10 µM (KM12): 8.58%; inhibition at 10 µM (OVCAR-8): 18.3%; inhibition at 10 µM (M14): 19.2%; inhibition at 10 µM (U251): 5.15%; inhibition at 10 µM (MDA-MB-435): 11.5%; inhibition at 10 µM (CAKI-1): 25.8%; inhibition at 10 µM (OVCAR-4): 24.5%; inhibition at 10 µM (NCI-H226): 33.6%; inhibition at 10 µM (HT29): 3.35%; inhibition at 10 µM (BT-549): 20.4%; inhibition at 10 µM (NCI-H522): 18.5%; inhibition at 10 µM (MALME-3M): 4.84%; inhibition at 10 µM (SK-MEL-28): 7.82% |
